# Legend:
# Homo sapiens = species: Homo sapiens; test: Tested for concentration required for antagonism of U-46,619-Induced Human Platelet Aggregation; assay type: functional
# Thromboxane A2 receptor = molecular target: T1, Thromboxane A2 receptor (Homo sapiens, UniProt P21731); test: Tested for binding affinity against platelet TXA2 receptor in washed human platelets using [125I]BOP as radioligand
# T1 sequence (P21731 whole entry): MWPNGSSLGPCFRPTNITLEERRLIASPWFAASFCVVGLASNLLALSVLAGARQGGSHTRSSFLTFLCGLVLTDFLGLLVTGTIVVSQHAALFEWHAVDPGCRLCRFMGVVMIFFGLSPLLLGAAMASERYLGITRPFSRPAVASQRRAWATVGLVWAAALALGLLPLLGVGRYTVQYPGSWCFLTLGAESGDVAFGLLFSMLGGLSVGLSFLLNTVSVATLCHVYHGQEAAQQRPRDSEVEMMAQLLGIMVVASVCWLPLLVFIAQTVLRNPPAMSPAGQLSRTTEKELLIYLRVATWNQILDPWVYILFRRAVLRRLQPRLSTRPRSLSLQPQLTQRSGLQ
SMILES,IC50 (Homo sapiens),Kd (Thromboxane A2 receptor)
O=C(O)CCC/C=C\CC1C2CCC(C2)C1NS(=O)(=O)c1ccccc1 (stereo not given),32 nM,2.9 nM
O=C(O)CCC/C=C/CCCNS(=O)(=O)c1ccccc1,1000 nM,67 nM
O=C(O)CCCCCCCCNS(=O)(=O)c1ccccc1,1500 nM,172 nM

# The remaining compounds from weak to strong by IC50 (Homo sapiens), led by results:
IC50 (Homo sapiens),Kd (Thromboxane A2 receptor),SMILES
250 nM,36 nM,O=C(O)CCC/C=C\C[C@H]1CCC[C@H]1NS(=O)(=O)c1ccccc1
150 nM,7.5 nM,O=C(O)CCC/C=C\C[C@H]1CCC[C@@H]1NS(=O)(=O)c1ccccc1

# Reference: ChEMBL document CHEMBL1125980, “Structural homologies among thromboxane (TXA2) receptor antagonists: Minimal pharmacophoric requirements for high affinity interaction with TXA2 receptors” (Bioorg Med Chem Lett, 1991)
